Source: patent US20160326142A1, “PYRAZOLE CARBOXAMIDE COMPOUNDS, COMPOSITIONS AND METHODS OF USE” (Genentech, Inc., priority 2012, published 2016)

target: T1, ITK (Homo sapiens, UniProt Q08881); test: ITK enzyme assay (Caliper or LCMS peptide phosphorylation); assay type: biochemical; conditions: purified ITK (Invitrogen PV3875), 20 μM ATP, Ki by Morrison's quadratic equation
T1 construct: purchased Invitrogen PV3875
T1 sequence (Q08881 1-620): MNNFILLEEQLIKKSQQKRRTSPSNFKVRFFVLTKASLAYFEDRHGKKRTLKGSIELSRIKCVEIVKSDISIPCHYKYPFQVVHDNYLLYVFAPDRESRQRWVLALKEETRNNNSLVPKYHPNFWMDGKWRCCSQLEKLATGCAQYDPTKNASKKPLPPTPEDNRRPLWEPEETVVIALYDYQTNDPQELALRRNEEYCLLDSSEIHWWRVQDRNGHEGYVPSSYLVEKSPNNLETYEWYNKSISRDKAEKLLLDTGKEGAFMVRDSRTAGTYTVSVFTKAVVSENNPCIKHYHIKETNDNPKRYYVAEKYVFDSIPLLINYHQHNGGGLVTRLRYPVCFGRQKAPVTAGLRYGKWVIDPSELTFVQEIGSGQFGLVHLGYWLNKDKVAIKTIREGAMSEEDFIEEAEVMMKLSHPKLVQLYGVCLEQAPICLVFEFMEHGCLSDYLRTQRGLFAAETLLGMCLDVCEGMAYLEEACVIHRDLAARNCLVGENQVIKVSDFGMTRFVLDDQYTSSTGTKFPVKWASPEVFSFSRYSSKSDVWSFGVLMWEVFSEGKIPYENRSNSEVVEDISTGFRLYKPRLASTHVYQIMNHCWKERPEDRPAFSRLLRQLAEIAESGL
Method in brief: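 Ki values come from Morrison quadratic fits of activity versus inhibitor concentration, adjusted for ATP-competitive inhibition against ATP/Km,app. Substrate and phosphopeptide from purified ITK reactions were resolved either microfluidically (Caliper, EDTA stop) or by LC-MS MRM (TCA stop).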

| Compound | Ki [nM] |
| --- | --- |
| CC12Cc3[nH]nc(C(=O)Nc4cnn(C(c5ccccc5)C5CCCCS5(=O)=O)c4)c3CC1C2 (single isomer, unassigned) [Example 143c, N-(1-((1,1-dioxidotetrahydro-2H-thiopyran-2-yl)(phenyl)methyl)-1H-pyrazol-4-yl)-5a-methyl-1,4,4a,5,5a,6-hexahydrocyclopropa[f]indazole-3-carboxamide] | 2 |
| CC12Cc3[nH]nc(C(=O)Nc4cnn(C(c5ccccc5)C5CCCCS5(=O)=O)c4)c3CC1C2 (single isomer, unassigned) [Example 143d, N-(1-((1,1-dioxidotetrahydro-2H-thiopyran-2-yl)(phenyl)methyl)-1H-pyrazol-4-yl)-5a-methyl-1,4,4a,5,5a,6-hexahydrocyclopropa[f]indazole-3-carboxamide] | < 0.1 |
| CC1(C)CCc2c(C(=O)Nc3cnn(C(c4cccnc4)C4CCCCS4(=O)=O)c3)n[nH]c2C1 (single isomer, unassigned) [Example 144a, N-(1-((1,1-dioxidotetrahydro-2H-thiopyran-2-yl)(pyridin-3-yl)methyl)-1H-pyrazol-4-yl)-6,6-dimethyl-4,5,6,7-tetrahydro-1H-indazole-3-carboxamide] | 0.1 |
| CC1(C)CCc2c(C(=O)Nc3cnn(C(c4cccnc4)C4CCCCS4(=O)=O)c3)n[nH]c2C1 (single isomer, unassigned) [Example 144b, N-(1-((1,1-dioxidotetrahydro-2H-thiopyran-2-yl)(pyridin-3-yl)methyl)-1H-pyrazol-4-yl)-6,6-dimethyl-4,5,6,7-tetrahydro-1H-indazole-3-carboxamide] | 3 |
| CC1(C)CCc2c(C(=O)Nc3cnn(C(c4cccnc4)C4CCCCS4(=O)=O)c3)n[nH]c2C1 (single isomer, unassigned) [Example 144c, N-(1-((1,1-dioxidotetrahydro-2H-thiopyran-2-yl)(pyridin-3-yl)methyl)-1H-pyrazol-4-yl)-6,6-dimethyl-4,5,6,7-tetrahydro-1H-indazole-3-carboxamide] | 0.1 |
| CC1(C)CCc2c(C(=O)Nc3cnn(C(c4cccnc4)C4CCCCS4(=O)=O)c3)n[nH]c2C1 (single isomer, unassigned) [Example 144d, N-(1-((1,1-dioxidotetrahydro-2H-thiopyran-2-yl)(pyridin-3-yl)methyl)-1H-pyrazol-4-yl)-6,6-dimethyl-4,5,6,7-tetrahydro-1H-indazole-3-carboxamide] | 2 |
| CC12Cc3[nH]nc(C(=O)Nc4cnn(C(c5cccnc5)C5CC[S+]([O-])CC5)c4)c3CC1C2 (single isomer, unassigned) [Example 146a, 5a-methyl-N-(1-((1-oxidotetrahydro-2H-thiopyran-4-yl)(pyridin-3-yl)methyl)-1H-pyrazol-4-yl)-1,4,4a,5,5a,6-hexahydrocyclopropa[f]indazole-3-carboxamide] | 0.1 |
| CC12Cc3[nH]nc(C(=O)Nc4cnn(C(c5cccnc5)C5CC[S+]([O-])CC5)c4)c3CC1C2 (single isomer, unassigned) [Example 146b, 5a-methyl-N-(1-((1-oxidotetrahydro-2H-thiopyran-4-yl)(pyridin-3-yl)methyl)-1H-pyrazol-4-yl)-1,4,4a,5,5a,6-hexahydrocyclopropa[f]indazole-3-carboxamide] | 2 |
| CC12Cc3[nH]nc(C(=O)Nc4cnn(C(c5cccnc5)C5CC[S+]([O-])CC5)c4)c3CC1C2 (single isomer, unassigned) [Example 146c, 5a-methyl-N-(1-((1-oxidotetrahydro-2H-thiopyran-4-yl)(pyridin-3-yl)methyl)-1H-pyrazol-4-yl)-1,4,4a,5,5a,6-hexahydrocyclopropa[f]indazole-3-carboxamide] | 0.1 |
| CC12Cc3[nH]nc(C(=O)Nc4cnn(C(c5cccnc5)C5CC[S+]([O-])CC5)c4)c3CC1C2 (single isomer, unassigned) [Example 146d, 5a-methyl-N-(1-((1-oxidotetrahydro-2H-thiopyran-4-yl)(pyridin-3-yl)methyl)-1H-pyrazol-4-yl)-1,4,4a,5,5a,6-hexahydrocyclopropa[f]indazole-3-carboxamide] | 2 |
| CC1(C)CCc2c(C(=O)Nc3cnn(C(c4cccnc4)C4CC[S+]([O-])CC4)c3)n[nH]c2C1 (single isomer, unassigned) [Example 147a, 6,6-dimethyl-N-(1-((1-oxidotetrahydro-2H-thiopyran-4-yl)(pyridin-3-yl)methyl)-1H-pyrazol-4-yl)-4,5,6,7-tetrahydro-1H-indazole-3-carboxamide] | 0.6 |
| CC1(C)CCc2c(C(=O)Nc3cnn(C(c4cccnc4)C4CC[S+]([O-])CC4)c3)n[nH]c2C1 (single isomer, unassigned) [Example 147b, 6,6-dimethyl-N-(1-((1-oxidotetrahydro-2H-thiopyran-4-yl)(pyridin-3-yl)methyl)-1H-pyrazol-4-yl)-4,5,6,7-tetrahydro-1H-indazole-3-carboxamide] | 4 |
| CC1(C)CCc2c(C(=O)Nc3cnn(C(c4cccnc4)C4CC[S+]([O-])CC4)c3)n[nH]c2C1 (single isomer, unassigned) [Example 147c, 6,6-dimethyl-N-(1-((1-oxidotetrahydro-2H-thiopyran-4-yl)(pyridin-3-yl)methyl)-1H-pyrazol-4-yl)-4,5,6,7-tetrahydro-1H-indazole-3-carboxamide] | 7 |
| CC1(C)CCc2c(C(=O)Nc3cnn(C(c4cccnc4)C4CC[S+]([O-])CC4)c3)n[nH]c2C1 (single isomer, unassigned) [Example 147d, 6,6-dimethyl-N-(1-((1-oxidotetrahydro-2H-thiopyran-4-yl)(pyridin-3-yl)methyl)-1H-pyrazol-4-yl)-4,5,6,7-tetrahydro-1H-indazole-3-carboxamide] | 0.6 |
| O=C1CCC2(CCc3c(C(=O)Nc4cnn(Cc5ccccc5)c4)n[nH]c3C2)N1 (single isomer, unassigned) [Example 148a, N-(1-benzyl-1H-pyrazol-4-yl)-5′-oxo-1,4,5,7-tetrahydrospiro[indazole-6,2′-pyrrolidine]-3-carboxamide] | > 400 |
| O=C1CCC2(CCc3c(C(=O)Nc4cnn(Cc5ccccc5)c4)n[nH]c3C2)N1 (single isomer, unassigned) [Example 148b, N-(1-benzyl-1H-pyrazol-4-yl)-5′-oxo-1,4,5,7-tetrahydrospiro[indazole-6,2′-pyrrolidine]-3-carboxamide] | > 400 |
| CC1(N2CCOCC2)CCc2c(C(=O)Nc3cnn(Cc4ccccc4)c3)n[nH]c2C1 (single isomer, unassigned) [Example 149a, N-(1-benzyl-1H-pyrazol-4-yl)-6-methyl-6-morpholino-4,5,6,7-tetrahydro-1H-indazole-3-carboxamide] | > 400 |
| CC1(N2CCOCC2)CCc2c(C(=O)Nc3cnn(Cc4ccccc4)c3)n[nH]c2C1 (single isomer, unassigned) [Example 149b, N-(1-benzyl-1H-pyrazol-4-yl)-6-methyl-6-morpholino-4,5,6,7-tetrahydro-1H-indazole-3-carboxamide] | > 400 |
| CC12Cc3[nH]nc(C(=O)Nc4cnn(Cc5ccccc5)c4)c3C1C2 (single isomer, unassigned) [Example 150a, N-(1-benzyl-1H-pyrazol-4-yl)-4a-methyl-3b,4,4a,5-tetrahydro-1H-cyclopropa[3,4]cyclopent a[1,2-c]pyrazole-3-carboxamide] | 130 |
